Measured values taken from patent publication US20050119251A1, “Nicotinamide derivatives and their use as therapeutic agents” (priority 2001, published 2005).

melting point: 49 to 51 °C
SMILES: COc1nc(N2CCN(C(=O)c3ccccc3C(F)(F)F)CC2)ccc1C(=O)NCCC1CC1 [Example 7, N-(2-cyclopropylethyl)-2-methoxy-6-(4-(2-trifluoromethylbenzoyl)piperazin-1-yl]nicotinamide]
